{"source": "patent US8828908B2", "about": "“Herbicidally active bicyclic 1,3-dione compounds” (Syngenta Limited, priority 2007, dated 2014)", "type_in_all_cases": "in vivo", "key": {"[1]": {"tested_on": "Setaria faberi (SETFA)", "test": "Example B post-emergence herbicidal greenhouse test", "conditions": "360 h, evaluated after 15 days, 100=total damage to plant, 0=no damage", "description": "(§1) Seeds of a variety of test species were sown in standard soil in pots. After cultivation for one day (pre-emergence) or after 10 days cultivation (post-emergence) under controlled conditions in a glasshouse, the plants were sprayed with an aqueous spray solution derived from the formulation of the technical active ingredient in 0.6 ml acetone and 45 ml formulation solution containing 10.6% Emulsogen EL (Registry number 61791-12-6), 42.2% N-methylpyrrolidone, 42.2% dipropylene glycol monomethyl ether (Registry number 34590-94-8) and 0.2% X-77 (Registry number 11097-66-8). The test plants were then grown in a greenhouse under optimum conditions until, 15 days later for post-emergence and 20 days for pre-emergence, the test was evaluated (100=total damage to plant; 0=no damage to plant).\n(§2) Alopecurus myosuroides (ALOMY), Avena fatua (AVEFA), Lolium perenne (LOLPE), Setaria faberi (SETFA), Digitaria sanguinalis (DIGSA), Echinochloa crus-galli (ECHCG)"}, "[2]": {"tested_on": "Digitaria sanguinalis (DIGSA)", "test": "Example B post-emergence herbicidal greenhouse test", "conditions": "360 h, evaluated after 15 days, 100=total damage to plant, 0=no damage", "description": "as §1, §2"}, "[3]": {"tested_on": "Avena fatua (AVEFA)", "test": "Example B post-emergence herbicidal greenhouse test", "conditions": "360 h, evaluated after 15 days, 100=total damage to plant, 0=no damage", "description": "as §1, §2"}, "[4]": {"tested_on": "Echinochloa crus-galli (ECHCG)", "test": "Example B post-emergence herbicidal greenhouse test", "conditions": "360 h, evaluated after 15 days, 100=total damage to plant, 0=no damage", "description": "as §1, §2"}, "[5]": {"tested_on": "Alopecurus myosuroides (ALOMY)", "test": "Example B post-emergence herbicidal greenhouse test", "conditions": "360 h, evaluated after 15 days, 100=total damage to plant, 0=no damage", "description": "as §1, §2"}, "[6]": {"tested_on": "Lolium perenne (LOLPE)", "test": "Example B post-emergence herbicidal greenhouse test", "conditions": "360 h, evaluated after 15 days, 100=total damage to plant, 0=no damage", "description": "as §1, §2"}, "[7]": {"tested_on": "Setaria faberi (SETFA)", "test": "Example B pre-emergence herbicidal greenhouse test", "conditions": "480 h, evaluated after 20 days, 100=total damage to plant, 0=no damage", "description": "as §1, §2"}, "[8]": {"tested_on": "Digitaria sanguinalis (DIGSA)", "test": "Example B pre-emergence herbicidal greenhouse test", "conditions": "480 h, evaluated after 20 days, 100=total damage to plant, 0=no damage", "description": "as §1, §2"}, "[9]": {"tested_on": "Avena fatua (AVEFA)", "test": "Example B pre-emergence herbicidal greenhouse test", "conditions": "480 h, evaluated after 20 days, 100=total damage to plant, 0=no damage", "description": "as §1, §2"}, "[10]": {"tested_on": "Echinochloa crus-galli (ECHCG)", "test": "Example B pre-emergence herbicidal greenhouse test", "conditions": "480 h, evaluated after 20 days, 100=total damage to plant, 0=no damage", "description": "as §1, §2"}, "[11]": {"tested_on": "Alopecurus myosuroides (ALOMY)", "test": "Example B pre-emergence herbicidal greenhouse test", "conditions": "480 h, evaluated after 20 days, 100=total damage to plant, 0=no damage", "description": "as §1, §2"}, "[12]": {"tested_on": "Lolium perenne (LOLPE)", "test": "Example B pre-emergence herbicidal greenhouse test", "conditions": "480 h, evaluated after 20 days, 100=total damage to plant, 0=no damage", "description": "as §1, §2"}}}
{"compound": "CC(=O)OC1=C(c2c(C)cc(-c3ccccc3)cc2C)C(=O)[C@@H]2CC[C@H]1C2", "note": "[Compound P1]", "values": [{"measurement": "pest or weed control at 125 g/ha", "setting": "[1]", "value": 70, "unit": "%"}, {"measurement": "pest or weed control at 125 g/ha", "setting": "[2]", "value": 60, "unit": "%"}, {"measurement": "pest or weed control at 125 g/ha", "setting": "[3]", "value": 0, "unit": "%"}, {"measurement": "pest or weed control at 125 g/ha", "setting": "[4]", "value": 60, "unit": "%"}, {"measurement": "pest or weed control at 125 g/ha", "setting": "[5]", "value": 20, "unit": "%"}, {"measurement": "pest or weed control at 125 g/ha", "setting": "[6]", "value": 20, "unit": "%"}, {"measurement": "pest or weed control at 250 g/ha", "setting": "[7]", "value": 70, "unit": "%"}, {"measurement": "pest or weed control at 250 g/ha", "setting": "[8]", "value": 70, "unit": "%"}, {"measurement": "pest or weed control at 250 g/ha", "setting": "[9]", "value": 30, "unit": "%"}, {"measurement": "pest or weed control at 250 g/ha", "setting": "[10]", "value": 100, "unit": "%"}, {"measurement": "pest or weed control at 250 g/ha", "setting": "[11]", "value": 30, "unit": "%"}, {"measurement": "pest or weed control at 250 g/ha", "setting": "[12]", "value": 60, "unit": "%"}]}
{"compound": "Cc1cc(-c2ccccc2)cc(C)c1C1=C(OC(=O)C(C)(C)C)C2CCC(C2)C1=O", "note": "(stereo not drawn) [Compound P2, 3-(3,5-dimethylbiphen-4-yl)-4-oxo-bicyclo[3.2.1]oct-2-en-2-yl 2,2-dimethylpropionate]", "values": [{"measurement": "pest or weed control at 125 g/ha", "setting": "[1]", "value": 40, "unit": "%"}, {"measurement": "pest or weed control at 125 g/ha", "setting": "[2]", "value": 40, "unit": "%"}, {"measurement": "pest or weed control at 125 g/ha", "setting": "[3]", "value": 0, "unit": "%"}, {"measurement": "pest or weed control at 125 g/ha", "setting": "[4]", "value": 60, "unit": "%"}, {"measurement": "pest or weed control at 125 g/ha", "setting": "[5]", "value": 30, "unit": "%"}, {"measurement": "pest or weed control at 125 g/ha", "setting": "[6]", "value": 10, "unit": "%"}, {"measurement": "pest or weed control at 250 g/ha", "setting": "[7]", "value": 70, "unit": "%"}, {"measurement": "pest or weed control at 250 g/ha", "setting": "[8]", "value": 70, "unit": "%"}, {"measurement": "pest or weed control at 250 g/ha", "setting": "[9]", "value": 40, "unit": "%"}, {"measurement": "pest or weed control at 250 g/ha", "setting": "[10]", "value": 50, "unit": "%"}, {"measurement": "pest or weed control at 250 g/ha", "setting": "[11]", "value": 30, "unit": "%"}, {"measurement": "pest or weed control at 250 g/ha", "setting": "[12]", "value": 30, "unit": "%"}]}
{"compound": "CCc1ccc(-c2ccc(F)cc2)cc1C1=C(O)[C@H]2CC[C@H](C2)C1=O", "note": "[Compound T3]", "values": [{"measurement": "pest or weed control at 125 g/ha", "setting": "[1]", "value": 90, "unit": "%"}, {"measurement": "pest or weed control at 125 g/ha", "setting": "[2]", "value": 80, "unit": "%"}, {"measurement": "pest or weed control at 125 g/ha", "setting": "[3]", "value": 30, "unit": "%"}, {"measurement": "pest or weed control at 125 g/ha", "setting": "[4]", "value": 90, "unit": "%"}, {"measurement": "pest or weed control at 125 g/ha", "setting": "[5]", "value": 50, "unit": "%"}, {"measurement": "pest or weed control at 125 g/ha", "setting": "[6]", "value": 0, "unit": "%"}, {"measurement": "pest or weed control at 250 g/ha", "setting": "[7]", "value": 100, "unit": "%"}, {"measurement": "pest or weed control at 250 g/ha", "setting": "[8]", "value": 80, "unit": "%"}, {"measurement": "pest or weed control at 250 g/ha", "setting": "[9]", "value": 60, "unit": "%"}, {"measurement": "pest or weed control at 250 g/ha", "setting": "[10]", "value": 100, "unit": "%"}, {"measurement": "pest or weed control at 250 g/ha", "setting": "[11]", "value": 50, "unit": "%"}, {"measurement": "pest or weed control at 250 g/ha", "setting": "[12]", "value": 70, "unit": "%"}]}
{"compound": "CCc1ccc(-c2ccc(C)cc2)cc1C1=C(O)[C@H]2CC[C@H](C2)C1=O", "note": "[Compound T5]", "values": [{"measurement": "pest or weed control at 125 g/ha", "setting": "[1]", "value": 70, "unit": "%"}, {"measurement": "pest or weed control at 125 g/ha", "setting": "[2]", "value": 50, "unit": "%"}, {"measurement": "pest or weed control at 125 g/ha", "setting": "[3]", "value": 0, "unit": "%"}, {"measurement": "pest or weed control at 125 g/ha", "setting": "[4]", "value": 80, "unit": "%"}, {"measurement": "pest or weed control at 125 g/ha", "setting": "[5]", "value": 0, "unit": "%"}, {"measurement": "pest or weed control at 125 g/ha", "setting": "[6]", "value": 0, "unit": "%"}, {"measurement": "pest or weed control at 250 g/ha", "setting": "[7]", "value": 0, "unit": "%"}, {"measurement": "pest or weed control at 250 g/ha", "setting": "[8]", "value": 10, "unit": "%"}, {"measurement": "pest or weed control at 250 g/ha", "setting": "[9]", "value": 10, "unit": "%"}, {"measurement": "pest or weed control at 250 g/ha", "setting": "[10]", "value": 100, "unit": "%"}, {"measurement": "pest or weed control at 250 g/ha", "setting": "[11]", "value": 0, "unit": "%"}, {"measurement": "pest or weed control at 250 g/ha", "setting": "[12]", "value": 0, "unit": "%"}]}
{"compound": "Cc1cc(-c2ccccc2)cc(C)c1C1=C(O)[C@H]2CC[C@H](C2)C1=O", "note": "[Compound T6, 3-(3,5-dimethylbiphen-4-yl)bicyclo[3.2.1]-2,4-dione]", "values": [{"measurement": "pest or weed control at 125 g/ha", "setting": "[1]", "value": 0, "unit": "%"}, {"measurement": "pest or weed control at 125 g/ha", "setting": "[2]", "value": 10, "unit": "%"}, {"measurement": "pest or weed control at 125 g/ha", "setting": "[3]", "value": 10, "unit": "%"}, {"measurement": "pest or weed control at 125 g/ha", "setting": "[4]", "value": 30, "unit": "%"}, {"measurement": "pest or weed control at 125 g/ha", "setting": "[5]", "value": 20, "unit": "%"}, {"measurement": "pest or weed control at 125 g/ha", "setting": "[6]", "value": 10, "unit": "%"}, {"measurement": "pest or weed control at 250 g/ha", "setting": "[7]", "value": 80, "unit": "%"}, {"measurement": "pest or weed control at 250 g/ha", "setting": "[8]", "value": 100, "unit": "%"}, {"measurement": "pest or weed control at 250 g/ha", "setting": "[9]", "value": 0, "unit": "%"}, {"measurement": "pest or weed control at 250 g/ha", "setting": "[10]", "value": 90, "unit": "%"}, {"measurement": "pest or weed control at 250 g/ha", "setting": "[11]", "value": 60, "unit": "%"}, {"measurement": "pest or weed control at 250 g/ha", "setting": "[12]", "value": 50, "unit": "%"}]}
